According to patent US6894033B2, “Combination therapies using vitamin B12 and therapeutic agents for treatment of viral, proliferative and inflammatory diseases” (Transition Therapeutics Inc., priority 2001, dated 2005):
Like-named read-outs stand apart in the source and are kept apart here.

Key:
[1] = test system: Human Hepatitis B Virus (HBV); experiment: HBV DNA copies in HepG2.2.15 culture medium by Lightcycler real-time PCR; format: cell-based; details: for Antiviral effect on HBV (HBV DNA copies): HepG2.2.15, 9 days
Protocol: HepG2.2.15 cells, a cell line that was stably transfected with HBV genome, were cultured in RPMI-1640 with fetal bovine serum at either 2 or 4% final concentration and with no antibiotics. The cells were seeded in a 96-well plate at a density of 2×10^4 cells/well and grown overnight. […] Triplicate samples were measured for each concentration. The cells were incubated at 37° C. for 9 days. Drug/medium was changed daily. On day 9, the culture media containing released HBV virions were harvested and used to extract HBV DNA.
HBV DNA from drug-treated HepG2.2.15 cell culture media was extracted using QIAmp DNA mini kit—blood and body fluid spin column according to manufacturer's instructions. Briefly, 10 μl of QIAGEN proteinase K was added to 1.5 ml Eppendorf tube. 50 μl cell supernatant and 50 μl AL buffer were added to the tube. The samples were incubated at 56° C. water bath for 3 h. At the end of incubation, 50 μl ethanol was added to the sample. The mixture was transferred to a QIAamp spin column and centrifuged at 14000 rpm for 1 min. The filtrate was discarded. 50 μl Buffer AW1 was then added to the column and centrifuged at 14000 rpm for 1 min. Following washing and recentrifugation, DNA was eluted in 50 μl dH2O.
HBV DNA was detected by real-time PCR using Lightcycler assay. The reaction was performed in 20 μl, comprising the following: 6.4/4.8 μl dH2O, 2 μl 25 mM MgCl2, 1 μl 10 μM sense primer, 1 μl 10 μM antisense primer, 8/1.6 μl LightCycler Probe (fluorescein-labeled, 5 μM), 0.8/1.6 μl LightCycler Probe 2 (LC Red 640-labeled, 10 μM), 2 μl LC FastStart DNA Master Hyb Probes, 1 μl uracil DNA glycosylase.
PCR mix was aliquoted into glass capillaries and 5 μl DNA template was then added to the PCR mix. A range of HBV plasmid DNA (1×10^8, 1×10^7, 1×10^6, . . . , 1×10^2, 25 copies) was used as standards for quantitative analysis.
The antiviral effects of the test compounds were calculated using DNA copy numbers as an endpoint. Specifically, the antiviral activities were calculated based on the following formula: Antiviral effect=(Ccontrol−Ctest)/Ccontrol whereby the Ccontrol is the HBV DNA copies in the control wells (without drug); the Ctest is the HBV DNA copies in the test wells with a given concentration of a test compound.
The enhancing or antagonistic effect was analyzed mathematically using the median effect equation (Chou and Talalay, 1984) by computer software CalcuSyn (Biosoft, St. Louis).

[2] = test system: Herpes Simplex Virus Type 2 (HSV-2); experiment: CPE inhibition assay in MRC-5 cells, HSV-2; format: cell-based
[3] = mice; doses up to 1 g/kg body weight; cited from earlier work
[4] = test system: Vesticular Stomatitis Virus (VSV); format: cell-based; details: MRC-5; for Anti-viral activity (protection of CPE) / viral activity, VSV: vitamin B12 = hydroxocobalamin (HC)
[5] = rabbits; doses up to 100 mg/kg body weight; cited from earlier work
[6] = test system: ND4 mouse model; experiment: Clinical signs in the ND4 demyelinating transgenic mouse model; format: in vivo; details: ND4 mice; for mean clinical scores / clinical signs (FIG. 5): intraperitoneal, paclitaxel alone 20 mg/kg once a week, vitamin B12 10 mg/kg once a week, combination with paclitaxel 5 mg/kg three times per week
Source text: (§1) In this model, the severity of the clinical signs increased until a maximum around 6 months with animals dying around 8 to 9 months of age. Clinical signs assessed included general shaking, seizures, head jerk, hind limb and tail shiver, wobbly gait and limp tail. The scale of zero (absence) to four (constant and uncontrollable movements) was used for each of the clinical signs.
All treatments began when the mice reached 3 months of age at which time signs of demyelinating disease were evident. Treatment was stopped at time of sacrifice.
Treatment was started when the animals were 3 months of age and continued for 11 weeks. The animals were evaluated twice a week for clinical signs and the scores were averaged on a weekly basis. Refer to example 1 for more experimental details.
as §1, with “The” for “In this model, the”, “increase” for “increased”, “include” for “included”
Mice (4 animals per group) were treated with vitamin B12 (cyanocobalamin) alone at a dose of 15 mg/kg, weekly and in combination with P-16. P-16 was administered alone and in combination with vitamin B12 at a dose of 1 mg/kg, tri-weekly. All treatments began when the mice reached 3 months of age at which time signs of demyelinating disease were evident. Treatment was stopped at time of sacrifice.
The ND4 transgenic mice received one of the following treatments through intraperitoneal injections: 1) paclitaxel (TAXOL®) at a dose of 20 mg/kg once a week; 2) vitamin B12 at a dose of 10 mg/kg once a week and paclitaxel (TAXOL®) at a dose of 5 mg/kg three times per week; and 3) vitamin B12 at a dose of 10 mg/kg once a week. All treatments started when the mice reached 3 months of age, at which time signs of demyelinating disease were evident.

[7] = test system: Mouse ascite astrocytoma cells; details: overnight, no treatment 0.8955
Protocol: Mouse ascite astrocytoma cells were seeded in a 96-well plate and grown to 60% confluence in standard growth conditions.
96® AQueous One Solution Cell Proliferation Assay was used as a colorimetric method for determining the number of viable cells in proliferations. […] 96® AQueous One Solution Reagent directly to culture wells, incubating for 1-4 hours and then recording absorbance at 490 nm with a 96 well plate reader. The quantity of formazan product as measured by the amount of 490 nm absorbance is known in the art to be directly proportional to the number of living cells in the culture.

[8] = test system: GFAP; experiment: GFAP in brain of ND4 mice (immunohistochemistry, slot blot of homogenates); format: in vivo, mouse; details: Vitamin B12 15 mg/kg, Normal 1.0, untreated ND4 4.4
Source text: After the various treatments, the mice were sacrificed and brain sections removed for GFAP staining and quantitation. The brain region of hippocampus, adjacent to the dentate gyrus was fixed in formalin, paraffin-embedded and sectioned at 5 μm. Immunohistochemistry with anti-GFAP antibody was used to stain for GFAP. Glial fibrillary acidic protein was a protein expressed by astrocytes (particularly reactive astrocytes) and was used as a marker for these cells.
In addition, quantification of GFAP within the brains of normal, ND4 untreated and ND4 treated mice was carried out to provide a more precise level of protein expression. Whole brain homogenates were assayed for GFAP by slot blot. Brains were homogenized in a buffer containing 50 mM Tris-HCl pH 7.6, 0.5 mM DTT, 1 mM EDTA, and 0.43 mM PMSF. The homogenate was centrifuged at 11000 rpm for 30 min at 4° C. The pellet was isolated and resuspended in a buffer containing 10 mM sodium phosphate pH 7.5, 2 mM DTT, 6 mM urea and 1 mM EDTA. Samples were loaded onto the slot blot apparatus (BioDot, Biorad) under vacuum. The blots were reacted with anti-GFAP antibodies and then a secondary antibody. The blots were developed and the relative amounts of each band quantified.

[9] = test system: GFAP; experiment: GFAP in brain of EAE mice (immunohistochemistry, slot blot of homogenates); format: in vivo, mouse
Protocol: EAE mice were treated as described previously in Example 2. After the various treatments, the mice were sacrificed and brain sections removed for GFAP staining and quantitation. The brain region of hippocampus, adjacent to the dentate gyrus was fixed in formalin, paraffin-embedded and sectioned at 5 μm. Immunohistochemistry with anti-GFAP antibody was used to stain for GFAP.
In addition, quantification of GFAP within the brains of normal, EAE untreated and EAE treated mice was carried out to provide a more precise level of protein expression. Whole brain homogenates were assayed for GFAP by slot blot. Brains were homogenized in a buffer containing 50 mM Tris-HCl pH 7.6, 0.5 mM DTT, 1 mM EDTA, and 0.43 mM PMSF. The homogenate was centrifuged at 11000 rpm for 30 min at 4° C. The pellet was isolated and resuspended in a buffer containing 10 mM sodium phosphate pH 7.5, 2 mM DTT, 6 mM urea and 1 mM EDTA. Samples were loaded onto the slot blot apparatus (BioDot, Biorad) under vacuum. The blots were reacted with anti-GFAP antibodies and then a secondary antibody. The blots were developed and the relative amounts of each band quantified.

[10] = Toxicity in the applicant's animal studies; format: in vivo; details: concentrations of 15 mg/kg of vitamin B12 in mice
[11] = HC 1 μg/ml, fraction (ODTest−OD0)/(ODControl−OD0)
[12] = Vitamin B12 (methylcobalamin) 25 μg/ml

C/C1=C2/[N-][C@H]([C@H](CC(N)=O)[C@@]2(C)CCC(=O)NC[C@@H](C)OP(=O)([O-])O[C@H]2[C@@H](O)[C@@H](n3cnc4cc(C)c(C)cc43)O[C@@H]2CO)[C@]2(C)N=C(/C(C)=C3N=C(/C=C4N=C1[C@@H](CCC(N)=O)C\4(C)C)[C@@H](CCC(N)=O)[C@]\3(C)CC(N)=O)[C@@H](CCC(N)=O)[C@]2(C)CC(N)=O.[Co+3].[OH-] [HC, hydroxocobalamin]
Antiviral effect on HBV (HBV DNA copies) ([1]; HC 1 μg/ml, fraction (Ccontrol−Ctest)/Ccontrol): 0.001
Antiviral effect on HBV (HBV DNA copies) ([1]; HC 10 μg/ml, fraction): 0.001
Antiviral effect on HBV (HBV DNA copies) ([1]; HC 100 μg/ml, fraction): 0.001
Antiviral effect on HBV (HBV DNA copies) ([1]; HC 500 μg/ml, fraction): 0.112
Antiviral effect on HSV-2 (CPE inhibition) [2, 11]: 0.014
Antiviral effect on HSV-2 (CPE inhibition) ([2]; HC 10 μg/ml, fraction): 0.032
Antiviral effect on HSV-2 (CPE inhibition) ([2]; HC 100 μg/ml, fraction): 0.056
Antiviral effect on HSV-2 (CPE inhibition) ([2]; HC 500 μg/ml, fraction): 0.166
Antiviral effect on HSV-2 (CPE inhibition) ([2]; HC 1000 μg/ml, fraction): 0.210
acute toxicity [3]: no toxicities were observed
Antiviral effect on VSV (CPE inhibition) [4, 11]: ≤ 0.001
Antiviral effect on VSV (CPE inhibition) ([4]; HC 10 μg/ml, fraction): ≤ 0.001
Antiviral effect on VSV (CPE inhibition) ([4]; HC 100 μg/ml, fraction): 0.039
Antiviral effect on VSV (CPE inhibition) ([4]; HC 500 μg/ml, fraction): ≤ 0.001
Antiviral effect on VSV (CPE inhibition) ([4]; HC 1000 μg/ml, fraction): 0.002
acute toxicity [5]: no toxicities were observed

CC(=O)O[C@H]1C(=O)[C@@]2(C)[C@H]([C@H](OC(=O)c3ccccc3)[C@]3(O)C[C@H](OC(=O)[C@H](O)[C@@H](NC(=O)c4ccccc4)c4ccccc4)C(C)=C1C3(C)C)[C@]1(OC(C)=O)CO[C@@H]1C[C@@H]2O [paclitaxel]
mean clinical scores / clinical signs (FIG. 5) [6]: significant attenuation of mean clinical scores

C/C1=C2/[N-][C@H]([C@H](CC(N)=O)[C@@]2(C)CCC(=O)NC[C@H](C)OP(=O)([O-])O[C@H]2[C@@H](O)[C@@H](n3cnc4cc(C)c(C)cc43)O[C@@H]2CO)[C@]2(C)N=C(/C(C)=C3N=C(/C=C4N=C1[C@@H](CCC(N)=O)C\4(C)C)[C@@H](CCC(N)=O)[C@]\3(C)CC(N)=O)[C@@H](CCC(N)=O)[C@]2(C)CC(N)=O.[CH3-].[Co+3] [vitamin B12 (methylcobalamin), methylcobalamin]
Measure of Proliferative Activity (Absorbance at 490 nm) [7, 12]: decrease in proliferative activity

CSTMMSRSHKTRSHHV (Synthetically generated peptide) [P-16]
clinical signs of MS (FIG. 3) ([6]; P-16 1 mg/kg tri-weekly, vitamin B12 (cyanocobalamin) 15 mg/kg weekly): attenuation of clinical signs

cyanocobalamin [Vitamin B12]
mean clinical scores / clinical signs (FIG. 5) [6]: significant attenuation of mean clinical scores
clinical signs of MS (FIG. 1) ([6]; vitamin B12 (cyanocobalamin) 15 mg/kg weekly, interferon-beta 1a 5000 IU tri-weekly, from 3 months of age): attenuation of clinical signs
Measure of Proliferative Activity (Absorbance at 490 nm) [7, 12]: 0.2985
viral activity (HBV) ([1]; HepG2.2.15, vitamin B12 = hydroxocobalamin (HC)): not
Anti-viral activity (protection of CPE) / viral activity, VSV [4]: significantly increased
Relative Amount of GFAP (+/−SD) [8]: 2.8 +/− 0.1
Relative Amount of GFAP (+/−SD) ([9]; EAE brain homogenates, Vitamin B12 15 mg/kg, Normal 1.0, untreated EAE 4.2): 4.2 +/− 0.2
levels of activated astrocytes and levels of GFAP ([9]; EAE mice treated as in Example 2): not effective in decreasing the levels of GFAP
toxicity in animals [10]: no toxicity has been found

interferon-alpha
Antiviral effect on HSV-2 (CPE inhibition) ([2]; interferon 5 IU/ml, fraction): 0.093
Antiviral effect on HSV-2 (CPE inhibition) ([2]; interferon 10 IU/ml, fraction): 0.139
Antiviral effect on HSV-2 (CPE inhibition) ([2]; interferon 50 IU/ml, fraction): 0.218
Antiviral effect on HSV-2 (CPE inhibition) ([2]; interferon 100 IU/ml, fraction): 0.282
Antiviral effect on HSV-2 (CPE inhibition) ([2]; interferon 500 IU/ml, fraction): 0.271
Anti-viral activity (protection of CPE) / viral activity, VSV [4]: significantly increased
Antiviral effect on VSV (CPE inhibition) ([4]; interferon 5 IU/ml, fraction): 0.296
Antiviral effect on VSV (CPE inhibition) ([4]; interferon 10 IU/ml, fraction): 0.387
Antiviral effect on VSV (CPE inhibition) ([4]; interferon 50 IU/ml, fraction): 0.950
Antiviral effect on VSV (CPE inhibition) ([4]; interferon 100 IU/ml, fraction): 0.996
Antiviral effect on VSV (CPE inhibition) ([4]; interferon 500 IU/ml, fraction): 0.942

B1: Mouse Interferon-beta: mouse interferon-beta used on mouse astrocytoma cells (protein, UniProt P01575 22-182, looked up)
Interferon beta: INYKQLQLQERTNIRKCQELLEQLNGKINLTYRADFKIPMEMTEKMQKSYTAFAIQEMLQNVFLVFRNNFSSTGWNETIVVRLLDELHQQTVFLKTVLEEKQEERLTWEMSSTALHLKSYYWRVQRYLKLMKYNSYAWMVVRAEIFRNFLIIRRLTRNFQN
Measure of Proliferative Activity (Absorbance at 490 nm) ([7]; Mouse Interferon-beta 500 IU/ml): 0.3855
Measure of Proliferative Activity (Absorbance at 490 nm) ([7]; Mouse Interferon-beta 500 IU/ml, listed as mice interferon-beta): decrease in proliferative activity
